Patent US9975903B2, “Condensed heterocyclic compound” (Takeda Pharmaceutical Company Limited, priority 2014, dated 2018)
Counter-ions that a name gives are not always drawn.

Target: T1, Human recombinant enteropeptidase (Homo sapiens, UniProt P98073)
T1 construct: purchased ITSI-Biosciences LLC #REN-260
Assay: Human enteropeptidase inhibitory activity (Test Example 1)
Format: biochemical
Conditions: 3.3 μM test compound, inhibition rate from fluorescence intensity at 2 hours after the start of the reaction; for inhibition at 3.3 µM: read-out: 3.3 μM Inhibition
Description: Human recombinant enteropeptidase (#REN-260, ITSI-Biosciences LLC) was diluted with an assay buffer (50 mM Tricine, pH 8.0, 0.01 (w/v) %, Tween 20, 10 mM CaCl2) to prepare a 24 mU/mL enzyme solution. Subsequently, 5FAM-Abu-Gly-Asp-Asp-Asp-Lys-Ile-Val-Gly-Gly-Lys(CPQ2)-Lys-Lys-NH2 (SEQ ID NO: 1, purity: 97.2%, CPC Scientific Inc.) was diluted with the assay buffer to prepare a 2.1 μM substrate solution. A test compound is dissolved in DMSO into a 1 mM solution, and the solution was diluted by 100-fold with the assay buffer to give a compound solution. To a 384-well black plate (#784076, Greiner Bio-One), 5 μL of the compound solution and 5 μL of the substrate solution were added and mixed, and 5 μL of the enzyme solution was then added to the mixture, followed by mixing to start the reaction. The fluorescence intensity was measured with a fluorescence plate reader EnVision (The Perkin-Elmer Corp.) at an excitation wavelength of 485 nm and a fluorescence wavelength of 535 nm. The same reaction as above except that the test compound was not contained was performed (test compound non-addition group). Furthermore, the same reaction as above except that the test compound and the enzyme were not contained was performed (control group). The inhibition rate was calculated using the fluorescence intensity at 2 hours after the start of the reaction by the following expression: Inhibition rate (%)=(1−((fluorescence intensity of test compound addition group)−(fluorescence intensity of control group))/((fluorescence intensity of test compound non-addition group)−(fluorescence intensity of control group)))×100

T1 sequence (P98073 whole entry): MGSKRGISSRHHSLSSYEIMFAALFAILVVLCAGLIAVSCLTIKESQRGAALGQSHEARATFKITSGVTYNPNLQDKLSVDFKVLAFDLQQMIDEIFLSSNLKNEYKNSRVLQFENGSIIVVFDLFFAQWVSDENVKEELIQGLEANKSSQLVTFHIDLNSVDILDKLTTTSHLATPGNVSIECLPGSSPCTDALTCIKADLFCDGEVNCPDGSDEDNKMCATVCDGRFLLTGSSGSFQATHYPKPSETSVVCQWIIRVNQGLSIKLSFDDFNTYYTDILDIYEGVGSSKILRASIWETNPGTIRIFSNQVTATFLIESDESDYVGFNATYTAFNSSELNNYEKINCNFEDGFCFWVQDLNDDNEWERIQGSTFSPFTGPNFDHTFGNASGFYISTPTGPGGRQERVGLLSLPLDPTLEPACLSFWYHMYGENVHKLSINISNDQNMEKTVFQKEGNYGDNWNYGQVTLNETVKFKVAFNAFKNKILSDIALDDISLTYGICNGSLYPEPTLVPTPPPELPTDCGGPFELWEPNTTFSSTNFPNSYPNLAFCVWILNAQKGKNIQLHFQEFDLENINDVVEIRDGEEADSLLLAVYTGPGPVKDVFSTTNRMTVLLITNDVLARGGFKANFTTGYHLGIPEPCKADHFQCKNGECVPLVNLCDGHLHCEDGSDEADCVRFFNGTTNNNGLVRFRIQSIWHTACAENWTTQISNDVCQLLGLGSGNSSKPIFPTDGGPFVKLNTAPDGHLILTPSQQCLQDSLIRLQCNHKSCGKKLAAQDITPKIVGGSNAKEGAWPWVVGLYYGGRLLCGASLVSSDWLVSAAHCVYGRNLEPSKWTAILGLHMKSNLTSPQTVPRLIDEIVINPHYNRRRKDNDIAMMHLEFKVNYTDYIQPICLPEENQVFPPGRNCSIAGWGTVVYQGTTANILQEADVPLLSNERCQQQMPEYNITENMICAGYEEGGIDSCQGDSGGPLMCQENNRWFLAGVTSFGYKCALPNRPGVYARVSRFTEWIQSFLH

## 4-((((10- carbamimidamido- 13-oxo-6,7,8,13- tetrahydro- dibenzo[b,f] [1,4]dioxecin-4- yl)carbonyl) carboxymethyl) amino)methyl) thiophene-2- carboxylic acid [Example 125]
  3.3 μM Inhibition: 100%

## N=C(N)Nc1ccc2c(c1)CCCOc1c(cccc1C1=NO[C@@](CC(=O)O)(C(=O)O)C1)OC2=O (stereo in doubt) [Example 22, 3-(10-Carbamimidamido-13-oxo-6,7,8,13-tetrahydrodibenzo[b,f][1,4]dioxecin-4-yl)-5-(carboxymethyl)-4,5-dihydro-1,2-oxazole-5-carboxylic acid]
  inhibition at 3.3 µM: 101%

## N=C(N)Nc1ccc2c(c1)CCCOc1cc(C(=O)N[C@H](CC(=O)O)C(=O)O)ccc1OC2=O (stereo in doubt) [Example 45, N-((10-carbamimidamido-13-oxo-6,7,8,13-tetrahydro-dibenzo[b,f] [1,4]dioxecin-3-yl)carbonyl)aspartic acid]
  inhibition at 3.3 µM: 100%

## N=C(N)Nc1ccc2c(c1)CCCOc1c(cccc1C(=O)N[C@@H](CC(=O)O)C(=O)O)OC2=O [Example 1, N-((10-Carbamimidamido-13-oxo-6,7,8,13-tetrahydrodibenzo[b,f][1,4]dioxecin-4-yl)carbonyl)-L-aspartic acid]
  inhibition at 3.3 µM: 101%

## N=C(N)Nc1ccc2c(c1)CCCOc1c(cccc1C(=O)N[C@H](CC(=O)O)C(=O)O)OC2=O [Example 2, N-((10-Carbamimidamido-13-oxo-6,7,8,13-tetrahydrodibenzo[b,f][1,4]dioxecin-4-yl)carbonyl)-D-aspartic acid]
  inhibition at 3.3 µM: 101%

## N=C(N)Nc1ccc2c(c1)CCCOc1c(cccc1C(=O)Nc1ccc(S(=O)(=O)O)cc1)OC2=O [Example 5, N-(((10-carbamimidamido-13-oxo-6,7,8,13-tetrahydro-dibenzo[b,f] [1,4]dioxecin-4-yl)carbonyl)amino) benzenesulfonic acid]
  inhibition at 3.3 µM: 101%

## N=C(N)Nc1ccc2c(c1)CCCOc1c(cccc1C(=O)N[C@@H](CS(=O)(=O)O)C(=O)O)OC2=O [Example 6, N-((10-Carbamimidamido-13-oxo-6,7,8,13-tetrahydrodibenzo[b,f][1,4]dioxecin-4-yl)carbonyl)-3-sulfo-L-alanine]
  inhibition at 3.3 µM: 101%

## COC(=O)[C@H](CS(=O)(=O)O)NC(=O)c1cccc2c1OCCCc1cc(NC(=N)N)ccc1C(=O)O2 [Example 7, 10-carbamimidamido-4-(((2R)-1-methoxy-1-oxo-3-sulfopropan-2-yl)carbamoyl)-13-oxo-6,7,8,13-tetrahydro-dibenzo[b,f] [1,4]dioxecine]
  inhibition at 3.3 µM: 102%

## N=C(N)NCCC[C@H](NC(=O)c1cccc2c1OCCCc1cc(NC(=N)N)ccc1C(=O)O2)C(=O)O [Example 8, N^~2^~-((10-carbamimidamido-13-oxo-6,7,8,13-tetrahydro-dibenzo[b,f] [1,4]dioxecin-4-yl)carbonyl)-L-arginine]
  inhibition at 3.3 µM: 100%

## N=C(N)Nc1ccc2c(c1)CCCOc1c(cccc1C(=O)N(CCC(=O)O)CCC(=O)O)OC2=O [Example 9, 3,3′-(((10-carbamimidamido-13-oxo-6,7,8,13-tetrahydro-dibenzo[b,f] [1,4]dioxecin-4-yl)carbonyl)imino) dipropanoic acid (non-preferred name)]
  inhibition at 3.3 µM: 101%

## N=C(N)Nc1ccc2c(c1)CCCOc1c(cccc1C(=O)N[C@@H](Cc1ccc(O)cc1)C(=O)O)OC2=O [Example 10, N-((10-carbamimidamido-13-oxo-6,7,8,13-tetrahydro-dibenzo[b,f] [1,4]dioxecin-4-yl)carbonyl)-L-tyrosine]
  inhibition at 3.3 µM: 101%

## N=C(N)Nc1ccc2c(c1)CCCOc1c(cccc1C(=O)NC(CC(=O)O)CC(=O)O)OC2=O [Example 11, 3-(((10-Carbamimidamido-13-oxo-6,7,8,13-tetrahydrodibenzo[b,f][1,4]dioxecin-4-yl)carbonyl)amino)pentanedioic acid]
  inhibition at 3.3 µM: 101%

## N=C(N)Nc1ccc2c(c1)CCCOc1c(cccc1C(=O)N1CCC[C@H]1C(=O)O)OC2=O [Example 12, 1-((10-carbamimidamido-13-oxo-6,7,8,13-tetrahydro-dibenzo[b,f] [1,4]dioxecin-4-yl)carbonyl)-L-proline]
  inhibition at 3.3 µM: 101%

## N=C(N)Nc1ccc2c(c1)CCOc1c(cccc1C(=O)N[C@@H](CC(=O)O)C(=O)O)OC2=O [Example 13, N-((9-Carbamimidamido-6-oxo-11,12-dihydro-6H-dibenzo[b,f][1,4]dioxonin-1-yl)carbonyl)-L-aspartic acid trifluoroacetate]
  inhibition at 3.3 µM: 101%

## N=C(N)Nc1ccc2c(c1)CCCOc1c(cccc1C(=O)N(CC(=O)O)CC(=O)O)OC2=O [Example 14, 2,2′-(((10-carbamimidamido-13-oxo-6,7,8,13-tetrahydro-dibenzo[b,f] [1,4]dioxecin-4-yl)carbonyl)imino) diacetic acid]
  inhibition at 3.3 µM: 101%

## N=C(N)Nc1ccc2c(c1)CCOc1c(cccc1C(=O)NCCS(=O)(=O)O)OC2=O [Example 15, 2-(((9-carbamimidamido-6-oxo-11,12-dihydro-6H-dibenzo[b,f][1,4]dioxonin-1-yl)carbonyl)amino) ethanesulfonic acid]
  inhibition at 3.3 µM: 101%

## N=C(N)Nc1ccc2c(c1)CCCOc1c(cccc1C(=O)N[C@@H](CCC(N)=O)C(=O)O)OC2=O [Example 16, N^~2^~-((10-carbamimidamido-13-oxo-6,7,8,13-tetrahydro-dibenzo[b,f] [1,4]dioxecin-4-yl)carbonyl)-L-glutamine]
  inhibition at 3.3 µM: 101%

## N=C(N)Nc1ccc2c(c1)CCCOc1c(cccc1C(=O)N[C@@H](CC(N)=O)C(=O)O)OC2=O [Example 17, N^~2^~-((10-carbamimidamido-13-oxo-6,7,8,13-tetrahydro-dibenzo[b,f] [1,4]dioxecin-4-yl)carbonyl)-L-asparagine]
  inhibition at 3.3 µM: 100%

## N=C(N)Nc1ccc2c(c1)CCCOc1c(cccc1C(=O)N[C@@H](CCC(=O)O)C(=O)O)OC2=O [Example 18, N-((10-Carbamimidamido-13-oxo-6,7,8,13-tetrahydrodibenzo[b,f][1,4]dioxecin-4-yl)carbonyl)-L-glutamic acid]
  inhibition at 3.3 µM: 101%

## N=C(N)Nc1ccc2c(c1)COc1c(cccc1C(=O)N[C@@H](CC(=O)O)C(=O)O)OC2=O [Example 19, N-((9-Carbamimidamido-6-oxo-6,11-dihydrodibenzo[b,f][1,4]dioxocin-1-yl)carbonyl)-L-aspartic acid trifluoroacetate]
  inhibition at 3.3 µM: 99%

## C[C@@H]1CCc2cc(NC(=N)N)ccc2C(=O)Oc2cccc(C(=O)N[C@@H](CC(=O)O)C(=O)O)c2C1 [Example 20, N-((3-carbamimidamido-7-methyl-14-oxo-6,7,8,14-tetrahydro-6H-dibenzo[b,h]oxecin-9-yl)carbonyl)-L-aspartic acid]
  inhibition at 3.3 µM: 102%

## CC1CCCc2cc(NC(=N)N)ccc2C(=O)Oc2cccc(C(=O)N[C@@H](CC(=O)O)C(=O)O)c21 (stereo partly drawn) [Example 21, N-((3-carbamimidamido-8-methyl-14-oxo-5,7,8,14-tetrahydro-6H-dibenzo[b,h]oxecin-9-yl)carbonyl)-L-aspartic acid]
  inhibition at 3.3 µM: 102%

## N=C(N)Nc1ccc2c(c1)CCCOc1c(cccc1C1=NOC(CC(=O)O)(C(=O)O)C1)OC2=O (stereo not shown) [Example 23, 3-(10-Carbamimidamido-13-oxo-6,7,8,13-tetrahydrodibenzo[b,f][1,4]dioxecin-4-yl)-5-(carboxymethyl)-4,5-dihydro-1,2-oxazole-5-carboxylic acid]
  inhibition at 3.3 µM: 102%

## N=C(N)Nc1ccc2c(c1)CCCOc1c(cccc1C(=O)NCP(=O)(O)O)OC2=O [Example 25, ((((10-carbamimidamido-13-oxo-6,7,8,13-tetrahydro-dibenzo[b,f] [1,4]dioxecin-4-yl)carbonyl)amino)methyl)phosphonic acid]
  inhibition at 3.3 µM: 102%

## N=C(N)Nc1ccc2c(c1)CCCCc1sc(C(=O)N[C@@H](CC(=O)O)C(=O)O)cc1OC2=O [Example 26, N-((9-Carbamimidamido-12-oxo-5,6,7,12-tetrahydro-4H-thieno[3,2-c][2]benzooxecin-2-yl)carbonyl)-L-aspartic acid]
  inhibition at 3.3 µM: 45%

## N=C(N)Nc1ccc2c(c1)CCCOc1c(cccc1C(=O)NCS(=O)(=O)O)OC2=O [Example 27, (((10-carbamimidamido-13-oxo-6,7,8,13-tetrahydro-dibenzo[b,f] [1,4]dioxecin-4-yl)carbonyl)amino) methanesulfonic acid]
  inhibition at 3.3 µM: 102%

## N=C(N)Nc1ccc2c(c1)CCCOc1c(cccc1C(=O)NCCS(=O)(=O)O)OC2=O [Example 28, 2-(((10-carbamimidamido-13-oxo-6,7,8,13-tetrahydro-dibenzo[b,f] [1,4]dioxecin-4-yl)carbonyl)amino) ethanesulfonic acid]
  inhibition at 3.3 µM: 102%

## N=C(N)Nc1ccc2c(c1)CCCOc1c(cccc1C(=O)O)OC2=O [Example 29, 10-carbamimidamido-13-oxo-6,7,8,13-tetrahydro-dibenzo[b,f] [1,4]dioxecine-4-carboxylic acid]
  inhibition at 3.3 µM: 101%
